In patent US7368439B2, “Dinucleoside poly(borano)phosphate derivatives and uses thereof” (BAR - ILAN University, priority 2005, dated 2008):
Read-outs that look alike come from different tables or passages of the source.

Assays:
[1] = for calculated hydrolysis rate constant: pH 1.4/37° C., KCl/HCl buffer, sodium salts, pseudo first-order fit
Description: To evaluate chemical stability at pH 1.4, sodium salts of dinucleoside poly(borano)phosphate analogues were dissolved in KCl/HCl buffer (pH 1.4, 0.44 ml) and D2O (0.06 ml). The final pH was then adjusted with HCl and measured with a pH-meter (final concentration 0.016 M). ^31P NMR spectra of Ap3(β-B)A and Up3(β-B)U were recorded during 3 h at 10 min time intervals at 37° C. Number of scans in all experiments was 1200, number of experiments was 17. The hydrolysis rate was determined by measurements of absolute integration of Pα (2.5 ppm) signal as a function of time and was fitted to a pseudo-first-order reaction model.
^31P NMR spectra of Ap5(β-B)A was recorded during 1 h at 10 min time intervals at 37° C. Number of scans in all experiments was 1200, number of experiments was 6. The hydrolysis rate was determined by measurement the absolute intagration of Pβ signal as a function of time and was fitted to a pseudo-first-order reaction model.
Chemical stability under conditions simulating gastric juice (pH 1.4/37° C.) was evaluated with Ap3(β-B)A, 1, Up3(β-B)U, 2, and Ap5(γ-B)A, 3 sodium salts, in KCl/HCl buffer. ^31P NMR spectra was recorded during 3 h at 10 min intervals. […] The intensity changes of the monophosphate ^31P signal with time were fit to a pseudo first-order exponential decay rate equation with respect to 1/2 concentration.

[2] = test system: human islets; assay: Insulin secretion using human islets; type: cell-based; conditions: 12 mM glucose; 10^−13 and 10^−12 M; 30 minutes at 37° C.; FIG. 3
Description: Islets aliquots were supplemented with 1 ml of medium containing 2.2, 12 or 22 mM glucose, or 22 mM glucose with 3-isobutyl-1-methylxanthine (IBMX) as a positive control, in the presence of various concentration of Up3(β-B)U tri-sodium salt, and incubated for 30 minutes at 37° C. in a humidified atmosphere containing 5% CO2. The medium was then collected for determination of insulin level; islets were collected for determination of protein; and insulin secretion was normalized to total protein. Basal insulin secretion was determined by incubating the islets in the presence of buffer containing 2 mM glucose.
Islets were kept in CMRL 1066 medium containing 5.5 mM glucose for 2-3 days and then washed out with medium containing 2.2 mM glucose. Islet aliquots were supplemented with 1 ml of medium containing 2.2, 12 or 22 mM glucose or 22 mM glucose with 3-isobutyl-1-methylxanthine (IBMX), in the presence or absence of the different secretagogues. The experiments were done in triplicate. Islets were incubated for 30 minutes at 37° C. in a humidified atmosphere containing 5% CO2. After incubation, the medium was collected for determination of insulin level. Quantification of insulin was done in duplicate using human insulin ELISA kit (ALPCO). […] Basal insulin secretion was determined by incubating the islets in the presence of buffer with 2 mM glucose. […]

[3] = test system: Diet-Induced Obesity (DIO) mouse model; assay: Glycemic response of DIO mice in the Oral Glucose Tolerance Test after a single intravenous administration; type: in vivo
Description: C57BL/6 male mice (Charles River Canada, St-Constant, Qc, Canada) were received at 7-8 weeks of age and fed a high fat diet (60% of calories from fat) for 6-8 weeks to induce hyperglycemia and obesity (Surwit et al., 1988). Blood glucose was checked and animals with readings between 200 and 220 mg/dl were included in the study. The animals were randomized based on their body weight and glycemic values, into control and treatment groups (n=6-8). The animals received a single intravenous injection of the test compound one minute prior to the Oral Glucose Tolerance Test (OGTT). The control group received vehicle (saline) alone. Blood samples (one drop) were collected from the tail vein prior to the administration of the test compound and at 5, 10, 20, 30, 60, 90 and 120 minutes post-glucose administration. Whole blood glucose values were determined using a hand-held glucometer (Model OneTouch Ultra, LifeScan). All data are expressed as mean±SEM.
FIG. 2 is an area under the curve (AUC) graph of delta glycemia. It is a representation of the area under the curve of the responses seen during the oral glucose tolerance test challenge. The data are corrected for the baseline blood glucose levels of the individual mice. […] If the area under the curves is integrated, the response can be quantified as represented in the bar graph.

[4] = test system: INS-1 cells; assay: Glucose-dependent stimulation of insulin secretion in INS-1 cells; type: cell-based; conditions: 6 mM glucose
Description: Compound 2, sodium salt, was tested for insulinotropic effect on insulin-secreting INS-1 cells (Hohmeier et al., 2000). Briefly, the cells were plated at a density of 2×10^5 in 12-well plates in RPMI with 10% fetal calf serum containing 11 mM glucose and maintained at 37° C. in a humidified atmosphere containing 5% CO2 for 2 days. The medium was removed on the third day post-plating and replaced with RPMI containing 3 mM glucose with 10% fetal calf serum. The cells were incubated for an additional 24 hours at 37° C. in a humidified atmosphere containing 5% CO2. On the fourth day post-plating, the medium was removed and replaced with Krebs-Ringer bicarbonate Hepes buffer (pH 7.4) containing 2 mM glucose. The cells were incubated for 30 min, and then the buffer was removed and replaced with Krebs-Ringer bicarbonate Hepes buffer (pH 7.4) with 6 mM glucose containing the test compound at various concentrations. The cells were incubated for 1 hour. Basal insulin secretion was determined by incubating the cells in the presence of buffer with 2 mM glucose. The presence of glucose at 6 and 10 mM stimulated insulin secretion and served as the reference control and positive control, respectively. A positive stimulatory response by the test compound was taken as the response above that elicited by 6 mM glucose.

[5] = pH 7.4/37° C., Tris/HCl buffer; for deboranation products: 4 weeks; for decomposition: 4 weeks (one month), sodium salts
Description: Dinucleosides poly(borano)phosphates tri- or penta-sodium salts were dissolved in Tris/HCl buffer (pH 7.4, 0.45 ml), and D2O (0.6 ml). pH 7.4 was then adjusted with HCl and measured with a pH-meter. Final analogue concentration was about 0.02 M. ^31P NMR spectra were recorded during 4 weeks at 3-7 days intervals at 37° C. Percentage of phosphoester hydrolysis of Ap3(β-B)A/Up3(β-B)U is based on absolute integrations of monophosphate signal (2.5 ppm). Percentage of phosphodiester hydrolysis of dinucleoside pentaphosphate is based on absolute integrations of Pα signal of ADP or UDP products.
Thus, ^31P NMR spectra of Up3(β-B)U, 2, and Ap5(β-B)A, 3, tri- and penta-sodium salts, respectively, in Tris/HCl buffer (in H2O), pH 7.4, were recorded during 4 weeks at 1- to 3-day intervals at 37° C.

Compound	calculated hydrolysis rate constant [1] [s⁻¹]	fold less stable than ATP-α-B analogues ([1]; under gastric juice conditions) [fold]	insulin secretion by human islets [2]	activity on glycemia at low concentration ([3]; 100 ng/kg intravenous, activity dropping as the concentration decreased)	effect on the increase of glycemia (delta glycemia, AUC) ([3]; DIO-mice, intravenous, one minute prior to the glucose challenge, FIG. 2)	insulin secretion versus background ([4]; 1 hour incubation, FIG. 1)	activity on insulin secretion at low concentrations ([4]; 10^−12 and 10^−11 M, activity dropping as the concentration increased)	deboranation products [5]	decomposition [5]	decomposition ([5]; listed as Ap5(γ-B)A)	fold less hydrolytically stable compared to Ap3(β-B)A ([1]; gastric juice conditions)
diadenosine tri(borano)phosphate [compound 1]	0.000152	2	–	–	–	–	–	–	–	–	–
diuridine tri(borano)phosphate [compound 2]	0.000165	–	able to promote significant insulin secretion	active at low concentration	partially inhibited the increase of the glycemia	stimulated insulin secretion above background levels	active at low concentrations	No deboranation products could be detected	–	–	–
BP(=O)(OP(=O)(O)OP(=O)(O)OCC1OC(n2cnc3c(N)ncnc32)C(O)C1O)OP(=O)(O)OP(=O)(O)OCC1OC(n2cnc3c(N)ncnc32)C(O)C1O (stereo not shown) [compound 3, diadenosine penta(borano)phosphate]	–	–	–	–	–	–	–	No deboranation products could be detected	less than 15%	less than 10%	about 4 fold
